Data: patent US11851419B2, “GLP-1R modulating compounds” (Gilead Sciences, Inc., priority 2020, dated 2023)

Biological target: T1, GLP-1R (Homo sapiens, UniProt P43220)
Assay: GLP-1R Activation - cAMP Assay 1 (cAMP increase in CHO cells stably expressing GLP-1R)
Format: cell-based
Conditions: 10 point dose response, 30 minutes incubation at 37° C., cAMP Gs Dynamic Kit
Method: GLP-1R Activation—cAMP Assay 1
GLP-1R activation by a compound of the present disclosure was quantified by measuring cAMP increase in CHO cells stably expressing GLP-1R (MultiSpan product #C1267-1a). The cells were harvested and plated in growth medium (DMEM/F-12 (Corning product #10-090-CV) supplemented with 10% FBS (HyClone product #SH30071-03), penicillin/streptomycin (Corning product #30-002CI) and 10 µg/ml puromycin (Gibco product #A11138-03)) at 1,000 cells/well in a 384-well plate (Greiner product #781080). The cells were then incubated overnight at 37° C., 5% CO2. The next day, the medium was removed and the cells were washed with DPBS (Corning product #21-031-CM) before adding the assay medium (HBSS, Corning product #21-023-CV) with 20 mM Hepes (Gibco product #15630-080) and 0. 1% BSA (Rockland Immunochemicals product #BSA-1000)). Following the medium change, the cells were incubated for 1 hour at 37° C., 5% CO2. The tested GLP-1 compound was added to the cells in a 10 point dose response followed by a 30 minutes incubation at 37° C., 5% CO2. cAMP concentration increase was then detected using Cisbio's cAMP Gs Dynamic Kit (product #62AM4PEC) according to the manufacturer's protocol. The response was plotted against the log of the agonist concentration and fitted to a sigmoidal equation to determine the EC50.

T1 sequence (P43220 24-463): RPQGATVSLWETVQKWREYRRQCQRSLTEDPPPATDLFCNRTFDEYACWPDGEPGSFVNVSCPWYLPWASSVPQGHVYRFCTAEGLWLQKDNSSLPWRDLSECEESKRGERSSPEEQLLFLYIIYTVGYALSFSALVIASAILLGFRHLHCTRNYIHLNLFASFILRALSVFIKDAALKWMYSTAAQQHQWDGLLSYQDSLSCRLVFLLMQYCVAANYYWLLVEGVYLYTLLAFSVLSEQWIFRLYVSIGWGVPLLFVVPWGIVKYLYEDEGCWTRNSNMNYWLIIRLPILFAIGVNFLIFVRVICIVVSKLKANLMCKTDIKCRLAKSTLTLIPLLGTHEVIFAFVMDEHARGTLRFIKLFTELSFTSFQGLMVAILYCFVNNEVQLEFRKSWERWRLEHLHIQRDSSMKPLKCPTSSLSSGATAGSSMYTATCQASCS

**Q.** For `COCCn1c(CN2CCC(c3cccc(OCc4ccc(C#N)cc4F)n3)CC2)nc2c(F)cc(C(=O)O)cc21` [Example 14, 2-[[4-[6-[(4-cyano-2-fluoro-phenyl)methoxy]-2-pyridyl]-1-piperidyl]methyl]-7-fluoro-3-(2-methoxyethyl)benzimidazole-5-carboxylic Acid], which EC50 is on record?
**A.** Its EC50 is 1.04 nM.

**Q.** For `CC(C)(C#N)Cn1c(CN2CCC(c3cccc(OCc4ccc(C#N)cc4F)n3)CC2)nc2c(F)cc(C(=O)O)cc21` [Example 15], which EC50 is on record?
**A.** The EC50 was 0.24 nM.

Biological target: T1, GLP-1R
Assay: GLP-1R Activation - cAMP Assay 2 (cAMP increase in CHO cells stably expressing GLP-1R, pre-spotted agonists)
Format: cell-based
Conditions: assay buffer or 100% Human Plasma (not given), 30 minutes at 37° C.
Method: GLP-1R Activation—cAMP Assay 2
GLP-1R activation by small molecule agonists is quantified by measuring cAMP increase in CHO cells stably expressing GLP-1R (MultiSpan product #C1267-1a). 50 nL of agonists are pre-spotted in a 10 point dose response onto 384-well plate (Corning product #CL3826) using the Labcyte Echo System. The cells are harvested and plated in assay buffer (HBSS (Corning product #21-023-CV) with 20 mM Hepes (Gibco product #15630-080) and 0.1% BSA (Rockland Immunochemicals product #BSA-1000)) or 100% Human Plasma (Innovative Research product #50-643-396) at 1,000 cells/well, 10 µL/well, onto the pre-spotted plates. The cells are then incubated for 30 minutes at 37° C., 5% CO2. cAMP concentration increase is then detected using Cisbio's cAMP Gs Dynamic Kit (product #62AM4PEC) according to the manufacturer's protocol. The response is plotted against the log of the agonist concentration and fitted to a sigmoidal equation to determine the EC50.

**Q.** How did the EC50 turn out when `COCCn1c(CN2CCC(c3cccc(OCc4ccc(C#N)cc4F)n3)CC2)nc2c(F)c(Nc3ccccc3)c(C(=O)O)cc21` [Example 1, 2-((4-(6-((4-cyano-2-fluorobenzyl)oxy)pyridin-2-yl)piperidin-1-yl)methyl)-4-fluoro-1-(2-methoxyethyl)-5-(phenylamino)-1H-benzo[d]imidazole-6-carboxylic acid] was run?
**A.** The EC50 was 15.1 nM.

**Q.** How did the EC50 turn out when `COCCn1c(CN2CCC(c3cccc(OCc4ccc(C(N)=O)cc4F)n3)CC2)nc2c(F)c(Nc3ccccc3)c(C(=O)O)cc21` [Example 2, 2-((4-(6-((4-carbamoyl-2-fluorobenzyl)oxy)pyridin-2-yl)piperidin-1-yl)methyl)-4-fluoro-1-(2-methoxyethyl)-5-(phenylamino)-1H-benzo[d]imidazole-6-carboxylic Acid] was run?
**A.** Its EC50 is 175 nM.

**Q.** `COCCn1c(CN2CCN(c3cccc(OCc4ccc(C#N)cc4F)n3)CC2)nc2c(F)c(Nc3ccccc3)c(C(=O)O)cc21` [Example 3, 2-((4-(6-((4-cyano-2-fluorobenzyl)oxy)pyridin-2-yl)piperazin-1-yl)methyl)-4-fluoro-1-(2-methoxyethyl)-5-(phenylamino)-1H-benzo[d]imidazole-6-carboxylic acid] was tested. Which EC50 did it give?
**A.** The EC50 was 1.9 nM.

**Q.** For `Cn1ccc(-c2cc(C(=O)O)cc3c2nc(CN2CCC(c4ccnc(OCc5ccc(C#N)cc5F)n4)CC2)n3C[C@@H]2CCO2)n1` [Example 4, (S)-2-((4-(2-((4-cyano-2-fluorobenzyl)oxy)pyrimidin-4-yl)piperidin-1-yl)methyl)-4-(1-methyl-1H-pyrazol-3-yl)-1-(oxetan-2-ylmethyl)-1H-benzo[d]imidazole-6-carboxylic Acid], which EC50 is on record?
**A.** Its EC50 is 1.2 nM.

**Q.** `N#Cc1ccc(COc2cccc(C3CCN(Cc4nc5c(-c6ccccn6)cc(C(=O)O)cc5n4C[C@@H]4CCO4)CC3)n2)c(F)c1` [Example 5, Methyl 2-[[4-[6-[(4-cyano-2-fluoro-phenyl)methoxy]-2-pyridyl]-1-piperidyl]methyl]-3-[[(2S)-oxetan-2-yl]methyl]-7-(2-pyridyl)benzimidazole-5-carboxylic Acid] was tested. Which EC50 did it give?
**A.** Its EC50 is 9.8 nM.

**Q.** How did the EC50 turn out when `N#Cc1ccc(COc2cccc(N3CCN(Cc4nc5c(-c6ccccn6)cc(C(=O)O)cc5n4C[C@@H]4CCO4)CC3)n2)c(F)c1` [Example 6] was run?
**A.** Its EC50 is 2.6 nM.

**Q.** With `CC(C)(O)C#Cc1cc(C(=O)O)cc2c1nc(CN1CCN(c3cccc(OCc4ccc(C#N)cc4F)n3)CC1)n2C[C@@H]1CCO1` [Example 11, 2-[[4-[6-[(4-cyano-2-fluoro-phenyl)methoxy]-2-pyridyl]piperazin-1-yl]methyl]-7-(3-hydroxy-3-methyl-but-1-ynyl)-3-[[(2S)-oxetan-2-yl]methyl]benzimidazole-5-carboxylic Acid] as the compound, how does the EC50 read?
**A.** Its EC50 is 1.7 nM.

**Q.** How did the EC50 turn out when `CC(C)(O)C#Cc1cc(C(=O)O)cc2c1nc(CN1CCC(c3cccc(OCc4ccc(C#N)cc4F)n3)CC1)n2C[C@@H]1CCO1` [Example 12] was run?
**A.** Its EC50 is 0.81 nM.

**Q.** `CC(C)(O)C#Cc1cc(C(=O)O)cc2c1nc(CN1CCN(c3cccc(OCc4ccc(C(N)=O)cc4F)n3)CC1)n2C[C@@H]1CCO1` [Example 13, 2-[[4-[6-[(4-carbamoyl-2-fluoro-phenyl)methoxy]-2-pyridyl]piperazin-1-yl]methyl]-7-(3-hydroxy-3-methyl-but-1-ynyl)-3-[[(2S)-oxetan-2-yl]methyl]benzimidazole-5-carboxylic Acid] was tested. Which EC50 did it give?
**A.** Its EC50 is 31.9 nM.

**Q.** For `CC(C)(O)C#Cc1cc2nc(CN3CCC(c4cccc(OCc5ccc(C#N)cc5F)n4)CC3)n(C[C@@H]3CCO3)c2cc1C(=O)O` [Example 16, (S)-2-((4-(6-((4-cyano-2-fluorobenzyl)oxy)pyridin-2-yl)piperidin-1-yl)methyl)-5-(3-hydroxy-3-methylbut-1-yn-1-yl)-1-(oxetan-2-ylmethyl)-1H-benzo[d]imidazole-6-carboxylic Acid], which EC50 is on record?
**A.** The EC50 was 28.8 nM.

**Q.** Which EC50 does the source give for `Cn1cc(-c2cc3nc(CN4CCC(c5cccc(OCc6ccc(C#N)cc6F)n5)CC4)n(C[C@@H]4CCO4)c3cc2C(=O)O)cn1` [Example 17, (S)-2-((4-(6-((4-cyano-2-fluorobenzyl)oxy)pyridin-2-yl)piperidin-1-yl)methyl)-5-(1-methyl-1H-pyrazol-4-yl)-1-(oxetan-2-ylmethyl)-1H-benzo[d]imidazole-6-carboxylic Acid] here?
**A.** Its EC50 is 13.3 nM.

**Q.** For `Cn1ccc(-c2cc(C(=O)O)cc3c2nc(CN2CCC(c4cccc(OCc5ccc(C#N)cc5F)n4)CC2)n3C[C@@H]2CCO2)n1` [Example 18, 2-[[4-[6-[(4-cyano-2-fluoro-phenyl)methoxy]-2-pyridyl]-1-piperidyl]methyl]-7-(1-methylpyrazol-3-yl)-3-[[(2S)-oxetan-2-yl]methyl]benzimidazole-5-carboxylic Acid], which EC50 is on record?
**A.** Its EC50 is 0.98 nM.

**Q.** With `Cn1ccc(-c2cc(C(=O)O)cc3c2nc(CN2CCN(c4cccc(OCc5ccc(C#N)cc5F)n4)CC2)n3C[C@@H]2CCO2)n1` [Example 19, 2-[[4-[6-[(4-cyano-2-fluoro-phenyl)methoxy]-2-pyridyl]piperazin-1-yl]methyl]-7-(1-methylpyrazol-3-yl)-3-[[(2S)-oxetan-2-yl]methyl]benzimidazole-5-carboxylic Acid] as the compound, how does the EC50 read?
**A.** The EC50 was 0.3 nM.

**Q.** How did the EC50 turn out when `N#Cc1ccc(COc2nc(C3CCN(Cc4nc5c(F)cc(C(=O)O)cc5n4C[C@@H]4CCO4)CC3)ccc2F)c(F)c1` [Example 20, 2-[[4-[6-[(4-cyano-2-fluoro-phenyl)methoxy]-5-fluoro-2-pyridyl]-1-piperidyl]methyl]-7-fluoro-3-[[(2S)-oxetan-2-yl]methyl]benzimidazole-5-carboxylic Acid] was run?
**A.** Its EC50 is 0.07 nM.

**Q.** With `N#Cc1ccc(COc2cccc(C3CCN(Cc4nc5c(F)cc(C(=O)O)cc5n4C[C@@H]4CCO4)CC3)n2)c(F)c1` [Example 21] as the compound, how does the EC50 read?
**A.** The EC50 was 0.038 nM.

**Q.** `N#Cc1ccc(COc2nc(N3CCN(Cc4nc5c(F)cc(C(=O)O)cc5n4C[C@@H]4CCO4)CC3)ccc2F)c(F)c1` [Example 22, 2-[[4-[6-[(4-cyano-2-fluoro-phenyl)methoxy]-5-fluoro-2-pyridyl]piperazin-1-yl]methyl]-7-fluoro-3-[[(2S)-oxetan-2-yl]methyl]benzimidazole-5-carboxylic Acid] was tested. Which EC50 did it give?
**A.** Its EC50 is 0.22 nM.

**Q.** With `N#Cc1ccc(COc2cccc(N3CCN(Cc4nc5c(F)cc(C(=O)O)cc5n4C[C@@H]4CCO4)CC3)n2)c(F)c1` [Example 23] as the compound, how does the EC50 read?
**A.** The EC50 was 0.031 nM.

**Q.** How did the EC50 turn out when `CC(C)(C)OC(=O)Nc1cc2nc(CN3CCC(c4cccc(OCc5ccc(C#N)cc5F)n4)CC3)n(C[C@@H]3CCO3)c2cc1C(=O)O` [Example 24, 6-(tert-butoxycarbonylamino)-2-[[4-[6-[(4-cyano-2-fluoro-phenyl)methoxy]-2-pyridyl]-1-piperidyl]methyl]-3-[[(2S)-oxetan-2-yl]methyl]benzimidazole-5-carboxylic Acid] was run?
**A.** The EC50 was 0.51 nM.

**Q.** How did the EC50 turn out when `Cn1ccc(-c2cc3nc(CN4CCC(c5cccc(OCc6ccc(C#N)cc6F)n5)CC4)n(C[C@@H]4CCO4)c3cc2C(=O)O)n1` [Example 30, 2-[[4-[6-[(4-cyano-2-fluoro-phenyl)methoxy]-2-pyridyl]-1-piperidyl]methyl]-6-(1-methylpyrazol-3-yl)-3-[[(2S)-oxetan-2-yl]methyl]benzimidazole-5-carboxylic Acid] was run?
**A.** Its EC50 is 52.2 nM.

**Q.** For `COCCn1c(C[C@H]2CC[C@@H](c3cccc(OCc4ccc(C#N)cc4F)n3)CC2)nc2c(-c3ccn(C)n3)cc(C(=O)O)cc21` [Example 31, 2-(((1s,4s)-4-(6-((4-cyano-2-fluorobenzyl)oxy)pyridin-2-yl)cyclohexyl)methyl)-1-(2-methoxyethyl)-4-(1-methyl-1H-pyrazol-3-yl)-1H-benzo[d]imidazole-6-carboxylic Acid], which EC50 is on record?
**A.** The EC50 was 134 nM.

**Q.** How did the EC50 turn out when `COCCn1c(C[C@H]2CC[C@H](c3cccc(OCc4ccc(C#N)cc4F)n3)CC2)nc2c(-c3ccn(C)n3)cc(C(=O)O)cc21` [Example 32, 2-(((1r,4r)-4-(6-((4-cyano-2-fluorobenzyl)oxy)pyridin-2-yl)cyclohexyl)methyl)-1-(2-methoxyethyl)-4-(1-methyl-1H-pyrazol-3-yl)-1H-benzo[d]imidazole-6-carboxylic Acid] was run?
**A.** The EC50 was 10.6 nM.
